Legend:
[1] = tested on: OVCAR-3 Human Ovary Xenograph; experiment: Dolastatin 10 in murine in vivo system, OVCAR-3 Human Ovary Xenograph Nude Mouse; settings: 40 μg/kg
Text: The synthesis of potentially useful peptides presents one of the most essential and promising approaches to new types of anticancer and immunosuppressant drugs. The Dolastatins, an unprecedented series of linear and cyclic antineoplastic and/or cytostatic peptides isolated from Indian Ocean sea hare Dolabella auricularia represent excellent leads for synthetic modification. The very productive sea hare Dolabella auricularia has produced a number of structurally distinct peptides with excellent antineoplastic activity. Presently Dolastatin 10, a linear pentapeptide represents the most important member and is a potentially useful antineoplastic agent. […] Recently the total synthesis and absolute configuration of this structurally unique and biologically active peptide was reported.

[2] = tested on: LOX Human Melanoma Xenograph; experiment: Dolastatin 10 in murine in vivo system, LOX Human Melanoma Xenograph (Nude Mouse)
Text: (§1) Presently Dolastatin 10, a linear pentapeptide represents the most important member and is a potentially useful antineoplastic agent.

[3] = tested on: P388 Lymphocytic Leukemia; experiment: Dolastatin 10 in murine in vivo system, P388 Lymphocytic Leukemia
Text: as §1

Human Mammary Xenograph = experiment: Dolastatin 10 in murine in vivo system, Human Mammary Xenograph Nude Mouse
Text: as §1

OVCAR-3 = experiment: Inhibition of human cancer cell line OVCAR-3 (Ovarian); assay type: cell-based
Text: (§2) Current research in the control of cancer in the United States is coordinated by the National Cancer Institute (NCI). To determine whether a substance has anti-cancer properties, the NCI has established a systematic protocol. […] The protocol, and the established statistical means for analyzing the results obtained by the standardized testing are fully described in the literature. See: Boyd, Dr. Michael R., Principles & Practice of Oncology, PPO Updates, Volume 3, Number 10, October 1989, for an in depth description of the testing protocol; and Paull, K. D., "Display and Analysis of Patterns of Differential Activity of Drugs Against Human Tumor Cell Lines; Development of Mean Graph and COMPARE Algorithm", Journal of the National Cancer Institute Reports, Vol. 81, No. 14, Page 1088, Jul. 14, 1989 for a description of the methods of statistical analysis. Both of these references are incorporated herein by this reference thereto.
(§3) The dipeptides (1a-1e) were in turn prepared by coupling dolaproine (5) with the respective amino acids. All compounds were characterized (physical and spectroscopic data) and tested against the murine lymphocytic P388 leukemia cell line as well as six major human cancer cell lines.

NCI-H460 = experiment: Inhibition of human cancer cell line NCI-H460 (Lung-NSC); assay type: cell-based
Text: as §2, §3

A498 = experiment: Inhibition of human cancer cell line A498 (Renal); assay type: cell-based
Text: as §2, §3

SK-MEL-3 = experiment: Inhibition of human cancer cell line SK-MEL-3 (Melanoma); assay type: cell-based
Text: as §2, §3

KM20L2 = experiment: Inhibition of human cancer cell line KM20L2 (Colon); assay type: cell-based
Text: as §2, §3

SF-295 = experiment: Inhibition of human cancer cell line SF-295 (CNS); assay type: cell-based
Text: as §2, §3

[4] = tested on: murine lymphocytic P388 leukemia cell line; experiment: Inhibition of murine lymphocytic P388 leukemia cell line; assay type: cell-based; settings: MOUSE LEUKEMIA P388
Text: as §3

| Substance | GI-50 (OVCAR-3) | LC-50 (OVCAR-3) | TGI (OVCAR-3) | GI-50 (NCI-H460) | LC-50 (NCI-H460) | TGI (NCI-H460) | GI-50 (A498) | LC-50 (A498) | TGI (A498) | GI-50 (SK-MEL-3) | LC-50 (SK-MEL-3) | TGI (SK-MEL-3) | GI-50 (KM20L2) | LC-50 (KM20L2) | TGI (KM20L2) | GI-50 (SF-295) | LC-50 (SF-295) | TGI (SF-295) | ED50 [4] | other results |
| --- | --- | --- | --- | --- | --- | --- | --- | --- | --- | --- | --- | --- | --- | --- | --- | --- | --- | --- | --- | --- |
| Dolastatin 10 | – | – | – | – | – | – | – | – | – | – | – | – | – | – | – | – | – | – | – | T/C [1]: 300; T/C ([2]; 3.25 μg/kg): 170; T/C ([2]; 6.5 μg/kg): 206; T/C ([2]; 13 μg/kg): 301; T/C ([2]; 26 μg/kg): 301; T/C ([3]; 3.25 μg/kg): 146; T/C ([3]; 6.5 μg/kg): 155; T/C (Human Mammary Xenograph; 6.25 μg/kg): 178; T/C (Human Mammary Xenograph; 13 μg/kg): 137 |
| Dov-Val-Dil-Dap-Ile-OCH3 [pentapeptide 3d] | < 0.0001 µg/mL | 0.043 µg/mL | < 0.1 ng/mL | < 0.0001 µg/mL | > 1 µg/mL | 0.88 ng/mL | < 0.0001 µg/mL | > 1 µg/mL | < 0.1 ng/mL | < 0.0001 µg/mL | > 1 µg/mL | < 0.1 ng/mL | < 0.0001 µg/mL | > 1 µg/mL | < 0.1 ng/mL | < 0.0001 µg/mL | > 1 µg/mL | 170 ng/mL | 0.441 ng/mL | – |
| Dov-Val-Dil-Dap-Met-OCH3 [pentapeptide 3e] | < 0.0001 µg/mL | > 1 µg/mL | < 0.1 ng/mL | < 0.0001 µg/mL | > 1 µg/mL | 130 ng/mL | < 0.0001 µg/mL | > 1 µg/mL | > 1000 ng/mL | < 0.0001 µg/mL | > 1 µg/mL | > 1000 ng/mL | < 0.0001 µg/mL | > 1 µg/mL | 0.15 ng/mL | < 0.0001 µg/mL | > 1 µg/mL | 56 ng/mL | 0.389 ng/mL | – |
| Dov-Val-Dil-Dap-Phe-NH2 [pentapeptide 3b] | 0.0076 µg/mL | 0.066 µg/mL | 3.7 ng/mL | 0.000095 µg/mL | > 1 µg/mL | 11 ng/mL | 0.00097 µg/mL | > 1 µg/mL | 6.2 ng/mL | 0.00017 µg/mL | > 1 µg/mL | 12 ng/mL | < 0.0001 µg/mL | 0.083 µg/mL | 19 ng/mL | 0.00085 µg/mL | > 1 µg/mL | 49 ng/mL | 19.5 ng/mL | – |
| Dov-Val-Dil-Dap-Phe-OCH3 [pentapeptide 3a] | < 0.0001 µg/mL | > 1 µg/mL | 1.1 ng/mL | < 0.0001 µg/mL | > 1 µg/mL | 11 ng/mL | < 0.0001 µg/mL | > 1 µg/mL | 2.9 ng/mL | < 0.0001 µg/mL | > 1 µg/mL | 0.68 ng/mL | < 0.0001 µg/mL | > 1 µg/mL | 1.1 ng/mL | < 0.0001 µg/mL | > 1 µg/mL | 0.17 ng/mL | 66.7 ng/mL | – |
| Dov-Val-Dil-Dap-Pro-OCH3 [pentapeptide 3c] | < 0.0001 µg/mL | > 1 µg/mL | < 0.1 ng/mL | < 0.0001 µg/mL | > 1 µg/mL | 1.3 ng/mL | < 0.0001 µg/mL | > 1 µg/mL | 5.4 ng/mL | < 0.0001 µg/mL | > 1 µg/mL | < 0.1 ng/mL | < 0.0001 µg/mL | > 1 µg/mL | 2.2 ng/mL | < 0.0001 µg/mL | > 1 µg/mL | 2.4 ng/mL | 8.8 ng/mL | – |

Reference: patent US5780588A, “Elucidation and synthesis of selected pentapeptides” (priority 1993, dated 1998)
